Test results published in paper PMC12814185, “Receptor-Mediated Shuttling of a D‑Amino Acid Peptide Achieves High Nanomolar Cytosolic Concentrations” (Journal of the American Chemical Society, 2025).
Where a SMILES comes first, the peptide text is derived from it. Bridges are numbered along the chain shown (N, C = ends). Roman numbers before positions name the chains, in order. Triazole bridges read from a SMILES are 1,4-linked. Where no end group is shown, it is not given here. Side-chain parts run from the residue outwards. [ ]: non-standard residue; d: D form. The star is where a group is joined. X2 = CN1C(=C/C=C/C=C/C2=[N+](CCCCCC(=O)*)c3ccc(S(=O)(=O)[O-])cc3C2(C)C)C(C)(C)c2cc(S(=O)(=O)O)ccc21; X1 = CN1C(=CC=CC=CC2=[N+](CCCCCC(=O)*)c3ccc(S(=O)(=O)[O-])cc3C2(C)C)C(C)(C)c2cc(S(=O)(=O)O)ccc21; Lys(N3) = [N-]=[N+]=NCCCC[C@H](N)C(=O)O; Cit = NC(=O)NCCC[C@H](N)C(=O)O; d(hCys) = N[C@H](CCS)C(=O)O; PEG3 = NCCOCCOCCOCCC(=O)O; Pra = C#CC[C@H](N)C(=O)O

How the values were obtained:
[1] = tested on: HEK293 cells stably expressing CMKLR1-eYFP; assay: Live cell fluorescence microscopy of peptide internalization, cells with CMKLR1; assay type: cell-based; details: 1 μM Cy5-labeled peptide, 6 h, cells transfected with CMKLR1
Protocol: (§1) 2 Internalization of cyclic chemerin-9 conjugates. Live cell fluorescence microscopy of HEK293 and HEK293 cells stably expressed CMKLR1-eYFP. Cells were incubated with 1 μM Cy5-labeled peptide for 6 h before imaging. Blue = Hoechst33342, yellow = CMKLR1-eYFP, magenta = Cy5-peptide, scale bar ≙ 10 μm. […]
(§2) Salt Solution (HBSS, Biowest), pH 7.5) for 1 h. […]
(§3) Experiments were performed in technical duplicates and at least […]
(§4) HEK293 and HEK293_CMKLR1-eYFP cells were seeded at 15,000 cells per well into poly-ᴅ-lysine coated 96-well plates (black µCLEAR, Greiner). The next day, dilutions of the Cy5 -labeled peptides or Nutlin-3a […]
(§5) Cells were then washed and a resazurin-based cell viability […]
(§6) assay was performed. […]
(§7) Experiments […]
(§8) were performed in technical triplicates and at least twice.
(§9) Peptide internalization was evaluated by fluorescence microscopy. HEK293 and stably transfected […]
(§10) microscopy slides (ibidi). The next day, 1 µM Cy5-labeled peptides in cell culture medium were added to the cells and incubated for 6 h.
(§11) FluoroBriteTM DMEM (Gibco) with 10% FBS, 25 mM HEPES (pH 7.4) before imaging on an AxioVision Observer.Z1 microscope equipped with an apotome imaging system, an HXP120C light source, and a C-Apochromat 63x/1.20 W objective. All shown microscopy images are representative of at least two

[2] = tested on: HEK293 cells; assay: Live cell fluorescence microscopy of peptide internalization, cells without CMKLR1; assay type: cell-based; details: 1 μM Cy5-labeled peptide, 6 h
Protocol: as §1, §2, §3, §4, §5, §6, §7, §8, §9, §10, §11

[3] = tested on: HEK293_CMKLR1-eYFP cells; assay: Intracellular peptide stability (cleavage products in cell lysate, RP-HPLC, MALDI-ToF-MS); details: 1 μM peptide; for intact peptide in cell lysate: 15 min to 24 h, RP-HPLC λex 640 nm λem 670 nm; for cleavage site identified by MALDI-ToF-MS: PMIγ sequence remained intact
Protocol: 3 Quantification of Cy5-labeled peptides in the cytosol. (A) RP-HPLC (λex = 640 nm, λem = 670 nm) of cleavage products of Cy5-labeled peptides in the lysate of HEK293_CMKLR1-eYFP cells after incubation with 1 μM peptide for different durations. […] (B) Representative fluorescence correlation spectroscopy (FCS) autocorrelation curves of Cy5-labeled peptides measured in the cytosol of HEK293_CMKLR1-eYFP cells after 72 h of incubation. Measured curves were fitted with a model for hindered 3D diffusion and diffusion time t D and anomalous coefficient α were calculated from the fit. Autocorrelation data represent mean ± SD of up to 10 consecutive 5 s measurements in a single cell. (C) Intracellular concentrations of Cy5-labeled peptides after 72 h incubation calculated from the fitted autocorrelation curves obtained in HEK293_CMKLR1-eYFP, HMEC-1, and THP-1 cells. Each data point corresponds to FCS measurements from the cytosol of a single cell. Median with the interquartile range is shown. Data from three independent experiments. Statistical comparison by log-normal unpaired t test. ***p ≤ 0.001, **p ≤ 0.01, *p ≤ 0.05, ns – not significant. […] (D) Calculated diffusion coefficients from the fitted autocorrelation curves. Median with the interquartile range is shown.
Intracellular peptide stability
2 mL of 1 µM Cy5-labeled peptide in DMEM/Ham's F12 (1:1) + 15% FBS without phenol red were incubated on stably transfected HEK293_CMKLR1-eYFP cells in T25 cell culture flasks for 15 min to 24 h. The cells were washed with cold acidic wash (50 mM glycine, 100 mM sodium chloride, pH 3) and phosphate-buffered saline (PBS, Biowest) and harvested into 300 µl cold PBS with HaltTM Protease inhibitor cocktail (Thermo).
Suspended cells were homogenized with zirconia beads on a FastPrep-24 5G system (MP Biomedical) for 30 s and cellular proteins were precipitated from 600 µL ACN/ethanol (1:1) + 0.1% TFA at -20 °C for 2 h.
Cell lysates were then filtered through Costar Spin-X tubes, separated by RP-HPLC and isolated peaks were identified by MALDI-ToF MS (Ultraflextreme, Bruker). Experiments were performed at least twice and representative RP-HPLC chromatograms are shown.

[4] = FCS diffusion coefficient in solution; assay type: physicochemical; details: 10 nM in Fluorobrite DMEM, 22 °C, mean and SD of three independent measurements
Description: Fluorescence correlation spectroscopy (FCS) […] Nuclei were […] HEPES (pH 7.4). […] Prior to measurements, the correction collar of the objective […] Repeats […] is the autocorrelation at τ, N the average number of molecules in the focal volume, τD the average diffusion time through the focal volume, α the anomalous coefficient describing the hindered diffusion, S the shape factor of the focal volume, τE the time domain of the additional exponential term and E the fraction of molecules in the exponential term. […] [nM] [nM] […] 100 23.5 ± 40.2 11.9 *÷ 3.0 10.2 (5.2-32.1) 1000 138 ± 122 87.7 *÷ 3.0 98.8 (37.8-199) 10000 308 ± 257 239 *÷ 2.0 228 (157-435) […] Table S8. Predicted and measured diffusion coefficients D in solution. Measurements were performed with 10 nM of fluorescent compounds in Fluorobrite […] Data from three independent measurements. Mean and standard deviation are shown. name molecular predicted D measured […]] sulfo-Cy5 778.0 - 341.6 (reference) […] Intracellular cleavage product 2401.8 244.7 - 3Cy […]9 4475.1 175.0 138.5 ± 5.1 Intracellular cleavage product 2733.2 234.4 - 18

Compound: CC(=O)N[C@@H](CCCCn1cc(C[C@H](NC(=O)CCOCCOCCOCCNC(=O)[C@H](CCCNC(N)=O)NC(=O)[C@@H](NC(=O)[C@H](CCC(=O)O)NC(=O)CNC(=O)CNC(=O)[C@@H](CCCNC(=N)N)NC(=O)[C@@H](CC(C)C)NC(=O)[C@@H](CC(C)C)NC(=O)[C@@H](C)NC(=O)[C@@H](CCC(=O)O)NC(=O)[C@@H](Cc2ccccc2)NC(=O)[C@@H](C)NC(=O)[C@@H](CC(C)C)NC(=O)[C@H]2CCCN2C(=O)[C@@H](Cc2c[nH]c3ccccc23)NC(=O)[C@@H](Cc2c[nH]c3ccccc23)NC(=O)[C@@H](CC(=O)O)NC(=O)CCOCCOCCOCCNC(=O)CCCCC[N+]2=C(/C=C/C=C/C=C3N(C)c4ccc(S(=O)(=O)O)cc4C3(C)C)C(C)(C)c3cc(S(=O)(=O)[O-])ccc32)C(C)C)C(N)=O)nn1)C(=O)N[C@@H](Cc1ccc(O)cc1)C(=O)N[C@@H](Cc1ccccc1)C(=O)N1CCC[C@H]1C(=O)N[C@@H]1CCSSC[C@@H](C(=O)O)NC(=O)[C@H](Cc2ccccc2)NC(=O)[C@H](C)NC(=O)[C@H](Cc2ccccc2)NC(=O)[C@H](CCC(N)=O)NC1=O [2Cy] (I: {X2-PEG3}-[dD][dW][dW][dP][dL][dA][dF][dE][dA][dL][dL][dR]GGEV[Cit][PEG3][Pra]-NH2 / II: Ac-[Lys(N3)]YFP[d(hCys)]QFAFC-OH; triazole I:19-II:1; disulfide II:5-II:10)
- internalization [1]: internalized efficiently
- internalization [2]: did not internalize
- intact peptide in cell lysate [3]: almost no intact peptide was detected
- cleavage site identified by MALDI-ToF-MS ([3]; lysate): valine-citrulline linker was quickly cleaved
- measured D in solution [4]: 154.2 ± 4.3 µm2/s

Compound: I: GSVSHHHHHHGGHHHH[PEG3][dK]([PEG3-X1])[dD][dW][dW][dP][dL][dA][dF][dE][dA][dL][dL][dR]GEV[Cit][PEG3][Pra]-NH2 / II: Ac-[Lys(N3)]YFP[d(hCys)]QFAFC-OH (triazole I:36-II:1; disulfide II:5-II:10) [3Cy]
- internalization [1]: internalized efficiently
- internalization [2]: very faint intracellular signals
- intact peptide in cell lysate [3]: almost no intact peptide was detected
- incubation time after which a singular cleavage product peak was observed ([3]; RP-HPLC of lysate): 1 h
- fate of the hsLMWP sequence ([3]; lysate, MALDI-ToF-MS): completely removed
- cleavage site identified by MALDI-ToF-MS ([3]; lysate): valine-citrulline linker was quickly cleaved
- measured D in solution [4]: 138.5 ± 5.1 µm2/s
